Experimental data published in ChEMBL document CHEMBL1641532, “Thiophene and bioisostere derivatives as new MMP12 inhibitors” (Bioorg Med Chem Lett, 2011).

These compounds were tested against Macrophage metalloelastase (Homo sapiens, UniProt P39900) (assay: Inhibition of MMP-12 catalytic domain).
Macrophage metalloelastase, sequence (P39900 whole entry, the tested form may be a part): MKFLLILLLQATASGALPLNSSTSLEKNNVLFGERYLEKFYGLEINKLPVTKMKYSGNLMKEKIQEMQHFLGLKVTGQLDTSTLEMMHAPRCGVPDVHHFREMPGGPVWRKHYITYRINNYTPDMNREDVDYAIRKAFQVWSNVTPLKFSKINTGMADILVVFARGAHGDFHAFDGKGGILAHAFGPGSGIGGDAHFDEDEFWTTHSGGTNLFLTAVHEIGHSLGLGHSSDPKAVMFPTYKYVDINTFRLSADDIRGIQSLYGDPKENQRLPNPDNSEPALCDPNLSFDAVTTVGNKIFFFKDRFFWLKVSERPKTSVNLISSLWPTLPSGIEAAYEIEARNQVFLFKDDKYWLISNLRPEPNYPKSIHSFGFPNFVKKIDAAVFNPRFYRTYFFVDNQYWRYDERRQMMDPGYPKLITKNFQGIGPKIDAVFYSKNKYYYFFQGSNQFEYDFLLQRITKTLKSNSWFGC
`O=C(NC[C@H]1CC[C@H](C(=O)O)CC1)c1cc(-c2ccc(OC(F)(F)F)cc2)sn1` was tested, and the IC50 was 31000 nM.
With `O=C(NC[C@H]1CC[C@H](C(=O)O)CC1)c1cc(-c2ccc(OC(F)(F)F)cc2)cs1` the IC50 was 400 nM.
Compound `NC(=O)C[C@@H](NC(=O)c1cc(-c2ccc(OC(F)(F)F)cc2)c(F)s1)c1ccccc1` has an IC50 of 85 nM.
Compound `O=C(O)C[C@@H](NC(=O)c1cc(-c2ccc(-c3ccncc3)cc2)c(F)s1)c1ccccc1` has an IC50 of 13 nM.
In the case of `O=C(NC[C@H]1CC[C@H](C(=O)O)CC1)c1cc(-c2ccc(OC(F)(F)F)cc2)ns1`, the IC50 is reported as 3600 nM.
`O=C(O)C[C@@H](NC(=O)c1cc(-c2ccc(OC(F)(F)F)cc2)c(F)s1)c1ccccc1` was tested, and the IC50 was 200 nM.
